Experimental data from US12378224B2 (Dong-A Socio Holdings Co., Ltd., priority 2016, dated 2025).

Tests used:
[1] = biological target: BCR fusion to kinase domain of MerTK (Ba/F3-MerTK) (Homo sapiens, UniProt Q12866); assay: In Cell TAM Kinase Assay Using BaF3 Cellular System; format: cell-based, murine; conditions: Ba/F3 BCR-kinase fusion proliferation, 72 hours, Cell Titer Glo; kinase not given; read-out: IC50
Excerpt: Three Ba/F3 cell lines (a murine IL-3 dependent pro-B cell line) expressing BCR fusions to the kinase domains of either MerTK (Ba/F3-MerTK), Axl (Ba/F3-Axl), or Tyro3 (Ba/F3-Tyro3) were purchased from Advanced Cellular Dynamics. The IL-3 independence of all 3 cell lines was confirmed. After thawing, the 3 Ba/F3 cell lines were split and maintained in cell culture media, which consisted of RPMI-1640-HEPES (Thermo-Cat #22400-089) with 1× Glutamax (Thermo-Cat #35050-061) and 10% FBS (Sigma-Cat #F4135 (500 ml), at a cell density range of 0.05×10^6−1×10^6 cells/mL 4 days before used in the routine screen. Compound plates were prepared using Nunc™ white 384-well optical bottom plates (ThermoFisher, USA) with compound in 25 nL dimethyl sulfoxide in each well. For routine assays, each of the 3 Ba/F3 cell lines was seeded at 1,000 cells per well with 25 µL of cell culture media directly into 384-well compound plates and incubated for 72 hours. Cell proliferation was then measured by adding 25 μL of Cell Titer Glo 2.0 (Promega, USA). After incubating with Cell Titer Glo at room temperature for 30 mins, the luminescence intensity, which quantifies the cell viability, was measured using an Envision™ plate reader (PerkinElmer, USA). […] In the presence of IL-3, the proliferation of the Ba/F3-Tyro3 cells is no longer dependent on the Tyro3 kinase activity.

[2] = biological target: human MER (528-end) (Homo sapiens (Human), UniProt Q12866); assay: HTRF Kinase Activity Biochemical Assay (KinEASE-TK); conditions: 10 uM ATP
Method in brief: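 Activity read-out is the HTRF ratio (665 nm over 620 nm emission, ×10,000; excitation 340 nm) after 1 h detection with 0.375 nM Eu3+-cryptate anti-TK antibody plus 0.062 uM SA-XL665. Preceding kinase step: human MER (528-end), biotinylated TK substrate, 1 h, room temperature.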

Sequence of human MER (528-end) (Q12866 528-999 limits assumed): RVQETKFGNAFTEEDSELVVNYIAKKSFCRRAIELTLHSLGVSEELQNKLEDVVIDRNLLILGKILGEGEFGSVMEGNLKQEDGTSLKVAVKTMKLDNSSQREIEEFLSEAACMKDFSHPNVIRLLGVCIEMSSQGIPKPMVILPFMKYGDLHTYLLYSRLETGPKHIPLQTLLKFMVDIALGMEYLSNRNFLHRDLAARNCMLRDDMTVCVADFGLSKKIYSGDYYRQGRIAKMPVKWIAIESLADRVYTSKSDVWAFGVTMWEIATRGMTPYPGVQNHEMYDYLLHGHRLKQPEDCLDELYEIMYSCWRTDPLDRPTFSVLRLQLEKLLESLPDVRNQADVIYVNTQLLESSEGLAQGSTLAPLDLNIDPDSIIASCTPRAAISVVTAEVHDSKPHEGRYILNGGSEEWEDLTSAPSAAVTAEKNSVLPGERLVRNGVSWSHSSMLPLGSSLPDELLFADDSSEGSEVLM
Sequence of BCR fusion to kinase domain of MerTK (Ba/F3-MerTK) (Q12866 21-999 limits assumed, stated change not applied): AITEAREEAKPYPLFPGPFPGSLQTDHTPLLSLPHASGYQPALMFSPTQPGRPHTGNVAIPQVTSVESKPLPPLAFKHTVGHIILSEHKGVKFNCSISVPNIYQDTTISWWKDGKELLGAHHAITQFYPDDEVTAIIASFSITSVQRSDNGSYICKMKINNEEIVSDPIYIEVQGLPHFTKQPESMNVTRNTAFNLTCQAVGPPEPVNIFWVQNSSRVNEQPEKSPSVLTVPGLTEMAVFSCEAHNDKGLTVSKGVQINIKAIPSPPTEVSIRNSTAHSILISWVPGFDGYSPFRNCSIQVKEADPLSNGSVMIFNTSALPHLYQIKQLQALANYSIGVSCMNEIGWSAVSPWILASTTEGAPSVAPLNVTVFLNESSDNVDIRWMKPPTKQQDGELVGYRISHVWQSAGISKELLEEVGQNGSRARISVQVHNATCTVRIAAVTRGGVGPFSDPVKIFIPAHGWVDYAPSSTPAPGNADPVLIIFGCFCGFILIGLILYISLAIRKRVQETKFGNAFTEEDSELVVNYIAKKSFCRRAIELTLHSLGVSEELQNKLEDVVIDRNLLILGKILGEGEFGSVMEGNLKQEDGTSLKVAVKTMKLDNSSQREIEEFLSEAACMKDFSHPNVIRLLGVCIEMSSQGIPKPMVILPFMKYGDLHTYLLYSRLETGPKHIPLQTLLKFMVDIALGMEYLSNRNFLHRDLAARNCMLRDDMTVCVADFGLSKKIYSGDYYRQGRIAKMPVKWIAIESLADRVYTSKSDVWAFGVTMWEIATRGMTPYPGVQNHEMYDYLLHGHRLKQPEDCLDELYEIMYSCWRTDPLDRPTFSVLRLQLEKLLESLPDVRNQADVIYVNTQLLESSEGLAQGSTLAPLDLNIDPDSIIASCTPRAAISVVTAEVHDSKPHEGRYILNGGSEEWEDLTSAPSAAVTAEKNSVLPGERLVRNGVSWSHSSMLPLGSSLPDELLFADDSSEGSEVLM

Row | SMILES | IC50 [1] | IC50 [2]
1 | CC(C)(c1ccc(-c2cnc(N)c(C(=O)N[C@@H]3CCN(C(=O)c4ccc(-c5ccccc5)cc4)C3)c2)cc1)N1CCN(CCO)CC1 [Example 565, (R)—N -(1-([1,1′-biphenyl]-4-carbonyl)pyrrolidin-3-yl)-2-amino-5-(4-(2-(4-(2-hydroxyethyl)piperazin-1-yl)propan-2-yl)phenyl)nicotinamide] | > 1000 nM | 10 to 100 nM
2 | Cc1nc(-c2cccc(-c3ccc(C(=O)N4CC[C@@H](NC(=O)c5cc(-c6cnn(C)c6)cnc5N)C4)cc3)c2)no1 [Example 714, (R)-2-amino-N-(1-(3′-(5-methyl-1,2,4-oxadiazol-3-yl)-[1,1′-biphenyl]-4-carbonyl)pyrrolidin-3-yl)-5-(1-methyl-1H-pyrazol-4-yl)nicotinamide] | > 1000 nM | 10 to 100 nM
3 | Cn1cc(-c2cnc(N)c(C(=O)N[C@@H]3CCN(C(=O)c4ccc(-c5ccc(F)cc5F)cc4)C3)c2)cn1 [Example 365, (R)-2-amino-N-(1-(2′,4′-difluoro-[1,1′-biphenyl]-4-carbonyl)pyrrolidin-3-yl)-5-(1-methyl-1H-pyrazol-4-yl)nicotinamide] | > 1000 nM | 10 to 100 nM
4 | Cn1cc(-c2cnc(N)c(C(=O)N[C@@H]3CCN(C(=O)c4ccc(-c5ccc(Cl)c(F)c5)cc4)C3)c2)cn1 [Example 661, (R)-2-amino-N-(1-(4′-chloro-3′-fluoro-[1,1′-biphenyl]-4-carbonyl)pyrrolidin-3-yl)-5-(1-methyl-1H-pyrazol-4-yl)nicotinamide] | 500 to 1000 nM | 10 to 100 nM
5 | Cn1cc(-c2cnc(N)c(C(=O)N[C@@H]3CCN(C(=O)c4ccc5cc(C(=O)N6CCN(CCO)CC6)ccc5c4)C3)c2)cn1 [Example 786, (R)-2-amino-N-(1-(6-(4-(2-hydroxyethyl)piperazine-1-carbonyl)-2-naphthoyl)pyrrolidin-3-yl)-5-(1-methyl-1H-pyrazol-4-yl)nicotinamide] | > 1000 nM | > 1000 nM
6 | Cn1cc(-c2cnc(N)c(C(=O)N[C@@H]3CCN(C(=O)c4ccc5cnccc5n4)C3)c2)cn1 [Example 700, (R)—N-(1-(1,6-naphthyridine-2-carbonyl)pyrrolidin-3-yl)-2-amino-5-(1-methyl-1H-pyrazol-4-yl)nicotinamide] | > 1000 nM | > 1000 nM
7 | Cn1cc(-c2cnc(N)c(C(=O)N[C@@H]3CCN(C(=O)c4ccc(Oc5cccc([N+](=O)[O-])c5)cc4)C3)c2)cn1 [Example 829, (R)-2-amino-5-(1-methyl-1H-pyrazol-4-yl)-N-(1-(4-(3-nitrophenoxy)benzoyl)pyrrolidin-3-yl)nicotinamide] | > 1000 nM | > 1000 nM
8 | Cn1cc(-c2cnc(N)c(C(=O)N[C@@H]3CCN(C(=O)c4cc5c(C(F)(F)F)ccc(Cl)c5[nH]4)C3)c2)cn1 [Example 704, (R)-2-amino-N-(1-(7-chloro-4-(trifluoromethyl)-1H-indole-2-carbonyl)pyrrolidin-3-yl)-5-(1-methyl-1H-pyrazol-4-yl)nicotinamide] | > 1000 nM | > 1000 nM
9 | CN1CCCC1CCOc1ccc2cc(C(=O)N3CC[C@@H](NC(=O)c4cc(-c5cnn(C)c5)cnc4N)C3)ccc2c1 (stereo partly drawn) [Example 764] | > 1000 nM | 100 to 1000 nM
10 | Cn1cc(-c2cnc(N)c(C(=O)N[C@@H]3CCN(C(=O)c4ccc(-c5ccc(Oc6ccc(C=O)cc6)cc5)cc4)C3)c2)cn1 [Example 811, (R)-2-amino-N-(1-(4′-(4-formylphenoxy)-[1,1′-biphenyl]-4-carbonyl)pyrrolidin-3-yl)-5-(1-methyl-1H-pyrazol-4-yl)nicotinamide] | > 1000 nM | 10 to 100 nM
11 | CN1CCC(N(Cc2ccccc2)c2ccc3cc(C(=O)N4CC[C@@H](NC(=O)c5cc(-c6cnn(C)c6)cnc5N)C4)ccc3c2)CC1 [Example 720, (R)-2-amino-N-(1-(6-(benzyl(1-methylpiperidin-4-yl)amino)-2-naphthoyl)pyrrolidin-3-yl)-5-(1-methyl-1H-pyrazol-4-yl)nicotinamide] | > 1000 nM | 100 to 1000 nM
12 | Cn1cc(-c2cnc(N)c(C(=O)N[C@@H]3CCN(C(=O)c4ccc(-c5ccc(CN6CCOCC6)cc5)cc4)C3)c2)cn1 [Example 711, (R)-2-amino-5-(1-methyl-1H-pyrazol-4-yl)-N-(1-(4′-(morpholinomethyl)-[1,1′-biphenyl]-4-carbonyl)pyrrolidin-3-yl)nicotinamide] | > 1000 nM | > 1000 nM
13 | Cn1cc(-c2cnc(N)c(C(=O)NC[C@H]3CCN(C(=O)c4ccc(-c5ccccc5)cc4)C3)c2)cn1 [Example 740, (R)—N-((1-([1,1′-biphenyl]-4-carbonyl)pyrrolidin-3-yl)methyl)-2-amino-5-(1-methyl-1H-pyrazol-4-yl)nicotinamide] | > 1000 nM | > 1000 nM
14 | Cn1cc(-c2cnc(N)c(C(=O)N[C@@H]3CCN(C(=O)c4ccc(-c5ccc(Oc6cccnc6)cc5)cc4)C3)c2)cn1 [Example 802, (R)-2-amino-5-(1-methyl-1H-pyrazol-4-yl)-N-(1-(4′-(pyridin-3-yloxy)-[1,1′-biphenyl]-4-carbonyl)pyrrolidin-3-yl)nicotinamide] | > 1000 nM | 100 to 1000 nM
15 | Cn1cc(-c2cnc(N)c(C(=O)N[C@@H]3CCN(C(=O)c4ccc5c(ccn5CC5CCNCC5)c4)C3)c2)cn1 [Example 709, (R)-2-amino-5-(1-methyl-1H-pyrazol-4-yl)-N-(1-(1-(piperidin-4-ylmethyl)-1H-indole-5-carbonyl)pyrrolidin-3-yl)nicotinamide] | > 1000 nM | 100 to 1000 nM
16 | CN1CCN(Cc2ccc(-c3cnc(N)c(C(=O)N[C@@H]4CCN(C(=O)c5ccc(-c6ccccc6)cc5)C4)c3)cc2)CC1 [Example 567, (R)—N-(1-([1,1′-biphenyl]-4-carbonyl)pyrrolidin-3-yl)-2-amino-5-(4-((4-methylpiperazin-1-yl)methyl)phenyl)nicotinamide] | > 1000 nM | 10 to 100 nM

Other lines, results leading:

Row | IC50 [1] | IC50 [2] | SMILES
17 | > 1000 nM | 100 to 1000 nM | Cn1cc(-c2cnc(N)c(C(=O)N[C@@H]3CCN(C(=O)c4ccc(-c5ccc6c(ccn6C)c5)cc4)C3)c2)cn1 [Example 756, (R)-2-amino-N-(1-(4-(1-methyl-1H-indol-5-yl)benzoyl)pyrrolidin-3-yl)-5-(1-methyl-1H-pyrazol-4-yl)nicotinamide]
18 | > 1000 nM | 10 to 100 nM | CN1CCN(Cc2ccc(-c3ccc(C(=O)N4CC[C@@H](Nc5n[nH]c6ncc(-c7cnn(C)c7)cc56)C4)cc3)cc2)CC1 [Example 794, (R)-(3-((5-(1-methyl-1H-pyrazol-4-yl)-1H-pyrazolo[3,4-b]pyridin-3-yl)amino)pyrrolidin-1-yl)(4′-((4-methylpiperazin-1-yl)methyl)-[1,1′-biphenyl]-4-yl)methanone]
19 | 500 to 1000 nM | 10 to 100 nM | Nc1ncc(-c2cnn(Cc3cccnc3)c2)cc1C(=O)N[C@@H]1CCN(C(=O)c2ccc(-c3ccc(F)cc3Cl)cc2)C1 [Example 586, (R)-2-amino-N-(1-(2′-chloro-4′-fluoro-[1,1′-biphenyl]-4-carbonyl)pyrrolidin-3-yl)-5-(1-(pyridin-3-ylmethyl)-1H-pyrazol-4-yl)nicotinamide]
20 | > 1000 nM | 10 to 100 nM | CN1CCC(Oc2ccc(-c3ccc(C(=O)N4CC[C@@H](NC(=O)c5cc(-c6cnn(C)c6)cnc5N)C4)cc3)cc2)CC1 [Example 809, (R)-2-amino-5-(1-methyl-1H-pyrazol-4-yl)-N-(1-(4′-((1-methylpiperidin-4-yl)oxy)-[1,1′-biphenyl]-4-carbonyl)pyrrolidin-3-yl)nicotinamide]
21 | 100 to 500 nM | 10 to 100 nM | Cn1cc(-c2cnc(N)c(C(=O)N[C@@H]3CCN(C(=O)c4ccc(-c5ccc(Oc6ccc(CO)cc6)cc5)cc4)C3)c2)cn1 [Example 635, (R)-2-amino-N-(1-(4′-(4-(hydroxymethyl)phenoxy)-[1,1′-biphenyl]-4-carbonyl)pyrrolidin-3-yl)-5-(1-methyl-1H-pyrazol-4-yl)nicotinamide]
22 | > 1000 nM | 10 to 100 nM | Cn1cc(-c2cnc(N)c(C(=O)N[C@@H]3CCN(C(=O)c4ccc(-c5ccccc5F)cc4)C3)c2)cn1 [Example 370, (R)-2-amino-N-(1-(2′-fluoro-[1,1′-biphenyl]-4-carbonyl)pyrrolidin-3-yl)-5-(1-methyl-1H-pyrazol-4-yl)nicotinamide]
23 | 500 to 1000 nM | 10 to 100 nM | Cn1cc(-c2cnc(N)c(C(=O)N[C@@H]3CCN(C(=O)c4ccc(-c5cccc(-c6nnnn6C)c5)cc4)C3)c2)cn1 [Example 712, (R)-2-amino-5-(1-methyl-1H-pyrazol-4-yl)-N-(1-(3′-(1-methyl-1H-tetrazol-5-yl)-[1,1′-biphenyl]-4-carbonyl)pyrrolidin-3-yl)nicotinamide]
24 | > 1000 nM | 100 to 1000 nM | Cn1cc(-c2cnc(N)c(C(=O)N[C@@H]3CCN(C(=O)c4ccc(Oc5ccc([N+](=O)[O-])cc5)cc4)C3)c2)cn1 [Example 831, (R)-2-amino-5-(1-methyl-1H-pyrazol-4-yl)-N-(1-(4-(4-nitrophenoxy)benzoyl)pyrrolidin-3-yl)nicotinamide]
